Assay results taken from patent US20190216751A1, “Compositions and Methods for the Treatment and Prevention of Cancer” (California State University Northridge, priority 2017, published 2019).

Columns and labels:
[1] = test system: eIF5A localization in MDA-MB-468 cells; assay: Immunofluorescence, subcellular localization of total eIF5A; assay type: cell-based, human; conditions: 1 and 10 μM GC7, 48 hours
Description: (§1) Thus, we interrogated the subcellular localization of eIF5A protein using immunofluorescent staining under control as well as 1 and 10 μM GC7 treatment conditions in triple negative breast cancer lines (FIGS. 12A and 12B).
(§2) Cells were plated at 1e4 cells/mL at 4 mL in a 6-well plate containing a sterile glass coverslip and allowed to attach overnight. Cells were then treated with appropriate inhibitors at indicated concentrations and time-points. Cells were first fixed using 4% paraformaldehyde for 20 minutes. Cells were then subjected to Triton-X to permeabilize the cells before treatment with specific antibodies in 2% BSA in PBS. After primary antibody incubation for 90 minutes, cells were washed with PBS three times before incubating with secondary antibodies in 2% BSA in PBS for 1 hour. Cells were again washed with PBS three times before set overnight staining with DAPI. Cells were then imaged using a Leica DMI6000 inverted microscope at 100× magnification.

[2] = test system: eIF5A localization in MCF10CA1h cells; assay: as above; assay type: cell-based, human; conditions: 1 and 10 μM GC7, 48 hours
Description: as §1, §2

[3] = test system: 67NR cells; assay: Cell proliferation assay (CellTiter 96 AQueous One, MTS); assay type: cell-based, mouse
Description: (§3) The next research questions revolved around asking how TGFβ is regulating eIF5A and what other proteins might be involved to completely block TGFβ-induced EMT. This led to histone deacetylase enzyme 6 (HDAC6). HDAC6 has been previously reported to be responsible for the deacetylation of eIF5A in the nucleus in order to make it readily available for hypusination and later transport out in the cytoplasm for functioning as a translation factor. To determine if it were possible to further increase the efficacy or potency of GC7, the inventors co-treated with Tubastatin A (an HDAC6 inhibitor) in 4T1 and 67NR cells as well as MDA-MB-468 cells which initially were not very sensitive to GC7. Triple negative human breast cancer cell line, […], was also used to see if another cell line representative of this breast cancer subtype was sensitive towards DHPS and HDAC6 inhibition. (FIGS. 5A and 5B). Here, are shown cell viability graphs for these four cell lines pretreated with GC7 at 1 μM and after 12 hours were exposed to various concentrations of Tubastatin A (TubA) ranging from 0.1 nM to 100 μM. […] MDA-MB-468 and BT549 cells remained to be insensitive to TubA with or without GC7 pretreatment (FIG. 5A). Next, the inventors performed the opposite cell viability experiment in which these four cell lines were pretreated with TubA at 1 μM and then exposed these cells to various concentrations of GC7 ranging from 0.1 nM to 1 mM. […] 4T1 cells were treated with TubA at 10 μM, GC7 at 10 μM or both drugs simultaneously for 48, 72 and 96 hours. […] To test this, the inventors looked further into the changes of eIF5A localization when treating with TubA, GC7 or both drugs simultaneously. In FIG. 5D is shown immunofluorescence staining of 4T1 cells treated with TubA at 10 μM, GC7 at 10 μM or both drugs at those same concentrations for 48 hours. […] DAPI was used to stain the nuclei shown in the […] channel and phase-contrast images are shown as reference (FIG. 5D). […] Protein lysates were also collected at the same time point described in FIG. 5D. Twenty μg of protein for each condition was run on a Bis-Tris […] gel then transferred onto a nitrocellulose membrane before staining total protein using Ponceau S (FIG. 5E).
(§4) The CellTiter 96® AQueous One Solution (Promega) was used to perform cell proliferation experiments. Cells were plated at 5e3 cells/mL at 200 μL/well in a 96-well plate and allowed to attach overnight. Cells were then treated with indicated drugs the next day at various concentrations. After 72 hours of drug treatments, 40 μL of AQueous One solution was added to each well. Absorbance readings were measured at 490 nm wavelength at 1.5, 2 and 3 hours (absorbance is directly proportional to the number of living cells).

[4] = test system: 4T1 cells; assay: as above; assay type: cell-based, mouse
Description: as §3, §4

[5] = test system: eIF5A localization in 4T1 cells; assay: Immunofluorescence, subcellular localization of total eIF5A; assay type: cell-based, mouse; conditions: 10 μM each drug, 48 hours
Description: The next research questions revolved around asking how TGFβ is regulating eIF5A and what other proteins might be involved to completely block TGFβ-induced EMT. This led to histone deacetylase enzyme 6 (HDAC6). HDAC6 has been previously reported to be responsible for the deacetylation of eIF5A in the nucleus in order to make it readily available for hypusination and later transport out in the cytoplasm for functioning as a translation factor. To determine if it were possible to further increase the efficacy or potency of GC7, the inventors co-treated with Tubastatin A (an HDAC6 inhibitor) in 4T1 and 67NR cells as well as MDA-MB-468 cells which initially were not very sensitive to GC7. Triple negative human breast cancer cell line, BT547, was also used to see if another cell line representative of this breast cancer subtype was sensitive towards DHPS and HDAC6 inhibition. (FIGS. 5A and 5B). Here, are shown cell viability graphs for these four cell lines pretreated with GC7 at 1 μM and after 12 hours were exposed to various concentrations of Tubastatin A (TubA) ranging from 0.1 nM to 100 μM. […] MDA-MB-468 and BT549 cells remained to be insensitive to TubA with or without GC7 pretreatment (FIG. 5A). […]

[6] = test system: human triple negative breast cancer cells; assay: Cell proliferation assay and hypusine western blot, response to GC7; assay type: cell-based; conditions: FIGS. 2A and 3A
Description: Cell lines were plated in a 6 well plate at 1e5 cells/mL and left to attach overnight. Cells were then treated if necessary then lysed using Radioimmunoprecipitation assay (RIPA) buffer containing phosphatase and protease inhibitors and left to rotate at 4° C. for at least 3 hours. Lysates were then cleared by centrifugation at 12,000 RPM for 10 minutes at 4° C. Protein concentrations were determined using Bradford Assay. 4-12% Bis-Tris […] gels were used to run protein lysates at 20 μg of protein that were stained with NuPage LDS Sample Buffer. Gels were then transferred onto nitrocellulose membranes and exposed to primary antibody solutions at the following concentrations for each indicated antibody. PEAK1 (Millipore 1:400), E-cadherin (Cell Signaling 1:1,000), Hypusine (Thermo Scientific 1:1,000), eIF5A (Thermo Scientific 1:1,000) and β-actin (Pro-Sci 1:1,000). Secondary antibodies were used at a 1:5,000-1:10,000 dilution. Band intensity graphs were quantified using Fiji software after image thresholding.
as §4, with “Cells were then treated with indicated drugs the next day at various concentrations. After 72 hours of drug treatments, 40 μL of AQueous One solution was added to each well.” left out

[7] = TubA 1 μM pretreatment, GC7 0.1 nM to 1 mM

N=C(N)NCCCCCCCN.O=S(=O)(O)O [GC7, N1-Guanyl-1,7-diaminoheptane]
nuclear depletion of eIF5A [1]: this change was significant only in the case of MDA-MB-468 cells | nuclear depletion of eIF5A [2]: Nuclear depletion of eIF5A was observed | efficacy after GC7 treatment (cell viability) ([3]; 72 hours, 0.1 nM→1 mM): largest efficacy | change of potency of GC7 by TubA pretreatment (cell viability) [3, 7]: this effect was not seen in the three other cell lines | efficacy after GC7 treatment (cell viability) ([4]; 72 hours, 0.1 nM→1 mM): largest efficacy | change of potency of GC7 by TubA pretreatment (cell viability) [4, 7]: subtly decreased | localization of total eIF5A [5]: predominantly cytoplasmic | sensitivity to GC7 treatment [6]: insensitive
